Tests used:
[1] = tested on: Newcastle disease virus Miyadera; format: cell-based; details: dose 3.9 mcg/m
[2] = tested on: Bacillus subtilis ATCC 6633; assay: paper disc method, inhibitory zone; format: cell-based; details: pure product, 20 to 500 mcg/ml
Experimental: In assaying the BN-183B substance, its anti-bacterial activity is utilized and Bacillus subtilis ATCC 6633 is used as an assaying strain. A mixture of 2% of mycin assay agar (a product of Kyoei Seiyaku K.K.) and 0.5% of bacto-agar (a product of Difco) is used as an assaying culture medium. When BN-183B substance (pure product) is assayed under the above conditions, the relation between the logarithm of the concentration within the range of 20 to 500 mcg/ml and the diameter of the inhibitory zone is linear, and an inhibitory zone having a diameter of 16 to 29 mm is given corresponding to the above concentration range (paper disc method).

[3] = tested on: Infectious hematopoietic necrosis (IHN) virus of rainbow trout; assay: antiviral activity by tissue culture test; format: cell-based; details: dose 0.5 mcg/m
solubility = format: physicochemical; details: hydrochloride
Influenza virus A0/PR-8 = format: cell-based; details: dose 3.9 mcg/m
[4] = tested on: Lymphocytic leukemia P-388; assay: increase in life span of mice transplanted intraperitoneally with P-388; format: in vivo
Experimental: (§1) Lymphocytic leukemia P-388 or lymphoid leukemia L-1210 cells were transplanted intraperitoneally in an amount of 1×10^6 per mouse into CDF1 mice or BDF1 mice (about 5 weeks old, body weight 20±1 g), five in one group. Twenty-four hours after the transplantation of the tumor, a solution of the BN-183B substance in distilled water for injection was administered intraperitoneally to the mice once a day for three successive days. The percent increase in life span (i.e., ILS) was measured by comparing the average number of days of survival of each treated group with that of a control group to which the BN-183B substance was not administered.

[5] = tested on: DNA-type and RNA-type viruses; assay: antiviral activity by tissue culture test (overall); format: cell-based; details: overall result in words
Vaccinia virus Lister = format: cell-based; details: dose 3.9 mcg/m
[6] = tested on: Herpes simplex virus type II 196; assay: anti-Herpes virus activity in mice; format: in vivo
[7] = tested on: Staphylococcus aureus 209P JC-1; assay: minimum growth inhibitory concentration; format: cell-based; details: nutrient agar
Excerpt: (§2) Table 1 below summarizes the minimum growth inhibitory concentrations of the BN-183B substance on various microorganisms.
(§3) The culture media used were a nutrient agar (a product of Difco).

[8] = tested on: Escherichia coli K-12 IAM 1264; assay: minimum growth inhibitory concentration; format: cell-based; details: nutrient agar
Excerpt: as §2, §3

[9] = tested on: Escherichia coli NIHJ JC-2; assay: minimum growth inhibitory concentration; format: cell-based; details: nutrient agar
Excerpt: as §2, §3

Proteus vulgaris OX19 = assay: minimum growth inhibitory concentration; format: cell-based; details: nutrient agar
Excerpt: as §2, §3

[10] = tested on: Staphylococcus aureus Smith S-424; assay: minimum growth inhibitory concentration; format: cell-based; details: nutrient agar
Excerpt: as §2, §3

[11] = tested on: Staphylococcus faecalis ATCC8043; assay: minimum growth inhibitory concentration; format: cell-based; details: nutrient agar
Excerpt: as §2, §3

[12] = tested on: Staphylococcus epidermidis ATCC14990; assay: minimum growth inhibitory concentration; format: cell-based; details: nutrient agar
Excerpt: as §2, §3

LD50 in mice = format: in vivo
lymphoid leukemia L-1210 = assay: increase in life span of mice transplanted intraperitoneally with L-1210; format: in vivo
Experimental: as §1

Herpes virus type II 196 = assay: antiviral activity by tissue culture test; format: cell-based; details: dose 3.9 mcg/m
[13] = tested on: Infectious pancreatic necrosis (IPN) virus of rainbow trout; assay: antiviral activity by tissue culture test; format: cell-based; details: dose 0.5 mcg/m
[14] = tested on: Gram-positive and Gram-negative bacteria; assay: growth inhibition of various microorganisms (overall); format: cell-based; details: overall result in words
Excerpt: as §2, §3

## C[C@H](N)C(=O)N[C@@H]1[C@H]2C(=C(O)C[C@@H](O)[C@@H]2O)C(=O)O[C@]1(C)C(Cl)Cl [BN-183B substance]
[1]
  Difference of Log TCID50/ml from the Control: 6.00 Log TCID50/ml
[2]
  diameter of the inhibitory zone: 16 to 29 mm
[3]
  Difference of Log TCID50/ml from the Control: 3.000 Log TCID50/ml
solubility; acetone
  Solubility in acetone: scarcely soluble
solubility; chloroform
  Solubility in chloroform: scarcely soluble
solubility; ethyl acetate
  Solubility in ethyl acetate: scarcely soluble
solubility; methanol
  Solubility in methanol: slightly soluble
solubility; water
  Solubility in water: Very soluble
Influenza virus A0/PR-8
  Difference of Log TCID50/ml from the Control: 2.50
[4]; P-388, 0.25 mg/kg i.p. once a day for three days
  Percent Increase in Life Span: 32.1%
[4]; P-388, 0.5 mg/kg i.p. once a day for three days
  Percent Increase in Life Span: 41.5%
[4]; P-388, 1 mg/kg i.p. once a day for three days
  Percent Increase in Life Span: 54.7%
[4]; P-388, 2 mg/kg i.p. once a day for three days
  Percent Increase in Life Span: 79.2%
[4]; P-388, 4 mg/kg i.p. once a day for three days
  Percent Increase in Life Span: 66.0%
[5]
  activity against DNA-type and RNA-type viruses: very strong activity
Vaccinia virus Lister
  Difference of Log TCID50/ml from the Control: < 3.00 Log TCID50/ml
[6]; 1.25 mg/kg BN-183B vs 100 mg/kg IUDR, i.p.
  anti-Herpes virus effect compared with IUDR: the same effect as in the group to which 100 mg/kg of IUDR was administered
[6]; 1.25 mg/kg i.p.
  ET50 (number of days of 50% survival): 8.38 days
[6]; 1.25 mg/kg i.p., day 5 from inoculation
  Cumulative Mortality: 0%
[6]; 1.25 mg/kg i.p., day 6 from inoculation
  Cumulative Mortality: 20%
[6]; 1.25 mg/kg i.p., day 7 from inoculation
  Cumulative Mortality: 20%
[6]; 1.25 mg/kg i.p., day 8 from inoculation
  Cumulative Mortality: 60%
[6]; 1.25 mg/kg i.p., day 9 from inoculation
  Cumulative Mortality: 70%
[6]; 1.25 mg/kg i.p., day 10 from inoculation
  Cumulative Mortality: 70%
[6]; 1.25 mg/kg i.p., day 11 from inoculation
  Cumulative Mortality: 80%
[6]; 1.25 mg/kg i.p., day 12 from inoculation
  Cumulative Mortality: 90%
[6]; 1.25 mg/kg i.p., day 13 from inoculation
  Cumulative Mortality: 90%
[6]; 1.25 mg/kg i.p., day 14 from inoculation
  Cumulative Mortality: 90%
[6]; 2.5 mg/kg i.p.
  ET50 (number of days of 50% survival): 7.65 days
[6]; 2.5 mg/kg i.p., day 5 from inoculation
  Cumulative Mortality: 0%
[6]; 2.5 mg/kg i.p., day 6 from inoculation
  Cumulative Mortality: 10%
[6]; 2.5 mg/kg i.p., day 7 from inoculation
  Cumulative Mortality: 20%
[6]; 2.5 mg/kg i.p., day 8 from inoculation
  Cumulative Mortality: 70%
[6]; 2.5 mg/kg i.p., day 9 from inoculation
  Cumulative Mortality: 80%
[6]; 2.5 mg/kg i.p., day 10 from inoculation
  Cumulative Mortality: 100%
[7]
  Minimum Growth Inhibitory Concentration: 0.20 µg/mL
[8]
  Minimum Growth Inhibitory Concentration: 0.78 µg/mL
[9]
  Minimum Growth Inhibitory Concentration: 1.56 µg/mL
Proteus vulgaris OX19
  Minimum Growth Inhibitory Concentration: 6.25 µg/mL
[10]
  Minimum Growth Inhibitory Concentration: 0.20 µg/mL
[11]
  Minimum Growth Inhibitory Concentration: 0.39 µg/mL
[12]
  Minimum Growth Inhibitory Concentration: 0.20 µg/mL
LD50 in mice; intramuscular
  LD50: 4.1 mg/kg
LD50 in mice; intraperitoneal
  LD50: 4.3 mg/kg
LD50 in mice; intravenous
  LD50: 4.1 mg/kg
LD50 in mice; oral
  LD50: 50 mg/kg
LD50 in mice; subcutaneous
  LD50: 6.0 mg/kg
Lymphoid leukemia L-1210; L-1210, 0.25 mg/kg i.p. once a day for three days
  Percent Increase in Life Span: 10.8%
Lymphoid leukemia L-1210; L-1210, 0.5 mg/kg i.p. once a day for three days
  Percent Increase in Life Span: 35.1%
Lymphoid leukemia L-1210; L-1210, 1 mg/kg i.p. once a day for three days
  Percent Increase in Life Span: 32.4%
Lymphoid leukemia L-1210; L-1210, 2 mg/kg i.p. once a day for three days
  Percent Increase in Life Span: 45.9%
Lymphoid leukemia L-1210; L-1210, 4 mg/kg i.p. once a day for three days
  Percent Increase in Life Span: 59.5%
Herpes virus type II 196
  Difference of Log TCID50/ml from the Control: 3.83 Log TCID50/ml
[13]
  Difference of Log TCID50/ml from the Control: 6.801 Log TCID50/ml
[14]
  inhibitory activity on Gram-positive and Gram-negative bacteria: strong inhibitory activity

## O=c1[nH]c(=O)n([C@H]2C[C@H](O)[C@@H](CO)O2)cc1I [IUDR, 5-iodo-2'-deoxyuridine, reference compound]
[6]; 100 mg/kg i.p.
  ET50 (number of days of 50% survival): 8.50 days
[6]; 100 mg/kg i.p., day 5 from inoculation
  Cumulative Mortality: 0%
[6]; 100 mg/kg i.p., day 6 from inoculation
  Cumulative Mortality: 0%
[6]; 100 mg/kg i.p., day 7 from inoculation
  Cumulative Mortality: 30%
[6]; 100 mg/kg i.p., day 8 from inoculation
  Cumulative Mortality: 40%
[6]; 100 mg/kg i.p., day 9 from inoculation
  Cumulative Mortality: 60%
[6]; 100 mg/kg i.p., day 10 from inoculation
  Cumulative Mortality: 70%
[6]; 100 mg/kg i.p., day 11 from inoculation
  Cumulative Mortality: 70%
[6]; 100 mg/kg i.p., day 12 from inoculation
  Cumulative Mortality: 70%
[6]; 100 mg/kg i.p., day 13 from inoculation
  Cumulative Mortality: 70%
[6]; 100 mg/kg i.p., day 14 from inoculation
  Cumulative Mortality: 70%

Source: patent publication US4283389A, “Novel antibiotic, BN-183B substance” (Meiji Seika Kaisha Ltd., priority 1978, dated 1981)
